Experimental data published in article PMC7725785, “TRIB3 promotes MYC-associated lymphoma development through suppression of UBE3B-mediated MYC degradation” (Nature Communications, 2020).
pKd: −log10 of the molar value. Where a SMILES comes first, the peptide text is derived from it. [ ]: non-standard residue; d: D form.

Columns and labels:
TRIB3 protein = molecular target: T1, TRIB3 protein (Homo sapiens, UniProt Q96RU7); assay: SPR kinetic interaction of α-helical peptides (CM1-CM4) with TRIB3; assay type: binding
T1 construct: GST; purchased Sinobiological Inc. 10731-H09B
T1 sequence (Q96RU7 1-358): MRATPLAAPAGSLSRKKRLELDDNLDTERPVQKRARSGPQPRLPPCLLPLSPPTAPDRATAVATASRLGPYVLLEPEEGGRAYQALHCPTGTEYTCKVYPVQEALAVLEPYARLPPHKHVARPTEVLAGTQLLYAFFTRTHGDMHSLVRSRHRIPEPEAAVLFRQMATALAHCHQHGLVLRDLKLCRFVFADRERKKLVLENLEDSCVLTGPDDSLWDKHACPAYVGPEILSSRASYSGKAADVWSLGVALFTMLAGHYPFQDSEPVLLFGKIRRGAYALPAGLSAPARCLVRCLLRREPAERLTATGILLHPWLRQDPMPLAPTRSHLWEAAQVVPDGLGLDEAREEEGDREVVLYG
Procedure: (§1) Binding kinetics between MYC and UBE3B, TRIB3 and the indicated α helical peptides, MAX and the indicated α helical peptides, or MYC and MAX were analyzed using a BIAcore T200 instrument (GE Healthcare, CA, USA) as described previously. Briefly, binding reactions were performed in HBS-EP buffer (GE Healthcare) at pH 7.4. TRIB3/MYC/MAX protein was coated on the flow cell of a CM5 sensor chip by direct immobilization. Another flow cell, not coated with an immobilized protein, was used to evaluate nonspecific binding. The binding analyses were performed at a flow rate of 25 μl/min at 25 °C. A total of 0–200 nM peptide or 0–500 nM TRIB3 protein was passed over the surface of the sensor chip. The association rate constant (Ka) and the dissociation rate constant (Kd) were calculated according to the BIA evaluation software. The dissociation constant (KD) was determined by Kd/Ka.

MAX protein = assay: SPR kinetic interaction of α-helical peptides (CM1-CM4) with MAX; assay type: binding; settings: result in words
Procedure: as §1

TRIB3 and MYC = assay: SPR kinetic interaction of TRIB3 and MYC proteins with or without CM4; assay type: binding; settings: in vitro, result in words
Procedure: as §1

MAX and MYC = assay: SPR kinetic interaction of MAX and MYC proteins with indicated peptides (CM1-CM4); assay type: binding; settings: result in words
Procedure: as §1

[1] = system: MYC polyubiquitination by UBE3B; assay: In vitro ubiquitination assay of MYC (UBE3B, UBCH3); assay type: biochemical; settings: result in words
Procedure: In vitro ubiquitination was performed according to the protocol provided with the Ubiquitination Kit (UW9920, BioMol) with some modifications. Briefly, MYC-His, UBE3B-His, UBE3B-(R346Q)-His, UBE3B-(C1036A)-His, and UBE3B-C-His were expressed in free-style 293 cells and purified by a Ni2+-NTA resin (GE). The assays were carried out at 37 °C in a 50-μl reaction mixture containing 20 U/ml inorganic pyrophosphatase (Sigma Aldrich), 5 mM dithiothreitol, 5 mM Mg-ATP, 100 nM E1, […], […], […], and […]. […] To obtain accurate results, the PAGE gel was run for a relatively long time until protein bands smaller than 40 kDa ran off the bottom line of the gel as judged by the protein molecular weight marker. Then, the protein was transferred to a polyvinylidene difluoride membrane (PVDF). To reduce the background noise, an anti-MYC antibody (Cell Signaling Technology, 1:1000) was used to detect MYC polyubiquitination via western blot analysis instead of the HRP-Streptavidin detection system recommended by the kit for the detection of biotinylated ubiquitin.

MYC and UBE3B = assay: In vitro coimmunoprecipitation of purified MYC, UBE3B and TRIB3 with or without CM4; assay type: binding; settings: purified His-MYC, His-UBE3B and GST-TRIB3 with or without CM4; result in words
Procedure: Co-IP experiments were performed as described in the section of immunoprecipitation.

MYC and MAX = assay: Duolink PLA of MYC and MAX colocalization in Raji cells; assay type: cell-based, human; settings: peptide 4 µM 12 hr, MG132 20 μM 6 hr, result in words
Procedure: A total of 1 × 10^6 cells were seeded overnight in a six-well plate. The next day, cells were collected, fixed in 4% paraformaldehyde solution, permeabilized with 0.5% Triton-X100, blocked with Duolink® Blocking Solution, and probed with antibodies directed against MYC (R&D, NB600-302, 1:100), TRIB3 (Novus, H00057761-M03, 1:100), UBE3B (Invitrogen, PA5-59390, 1:100), and MAX (Cell Signaling Technology, #4739, 1:100). The cells were then treated with the Duolink In Situ Red Starter Mouse/Rabbit kit (Sigma Aldrich, DUO92101-1KT) according to the manufacturer’s instructions. Images were captured with an OLYMPUS confocal microscope.

In the case of `CC(C)C[C@@H](NC(=O)[C@@H](CCC(N)=O)NC(=O)[C@@H](CCC(=O)O)NC(=O)[C@@H](CC(C)C)NC(=O)[C@@H](CCCCN)NC(=O)[C@@H](Cc1c[nH]cn1)NC(=O)[C@@H](CCCCN)NC(=O)[C@@H](CC(C)C)NC(=O)[C@@H](CCC(N)=O)NC(=O)[C@@H](CCC(=O)O)NC(=O)[C@@H](CCCNC(=N)N)NC(=O)[C@@H](CCCNC(=N)N)NC(=O)[C@H](N)CCCCN)C(=O)N[C@H](CCCNC(=N)N)C(=O)O` [CM4] (H-[dK][dR][dR][dE][dQ][dL][dK][dH][dK][dL][dE][dQ][dL][dR]-OH; N-terminus and C-terminus assumed), the pKd (TRIB3 protein; BIAcore T200, HBS-EP pH 7.4, 25 °C, printed in Fig. 6a) was 7.12, the kon (TRIB3 protein; BIAcore T200, HBS-EP pH 7.4, 25 °C, printed in Fig. 6a, read-out: ka) was 1.01e+06 M⁻¹ s⁻¹ and the “binding affinity for TRIB3” value (TRIB3 protein; result in words) was “high binding affinity”. For the same compound, the “ability to bind MAX” value (MAX protein) was “not”, the “effect on the binding affinity of TRIB3 and MYC” value (TRIB3 and MYC) was “decreased the binding affinity of TRIB3 and MYC” and the “effect on the binding of MYC and MAX” value (MAX and MYC) was “not”. For the same compound, the “polyubiquitination of MYC in vitro” value [1] was “restored the polyubiquitination of MYC”, the “binding of MYC and UBE3B in vitro” value (MYC and UBE3B) was “increased the binding of MYC and UBE3B” and the “colocalization of MYC and MAX in MG132-treated Raji cells” value (MYC and MAX) was “did not affect the colocalization of MYC and MAX”.
